{"source": "ChEMBL document CHEMBL4622831", "about": "“Anti-diabetic drugs recent approaches and advancements” (Bioorg Med Chem, 2020)", "key": {"[1]": {"target": "T1, Glucose-dependent insulinotropic receptor (Homo sapiens, UniProt Q8TDV5)", "T1 sequence (Q8TDV5 whole entry)": "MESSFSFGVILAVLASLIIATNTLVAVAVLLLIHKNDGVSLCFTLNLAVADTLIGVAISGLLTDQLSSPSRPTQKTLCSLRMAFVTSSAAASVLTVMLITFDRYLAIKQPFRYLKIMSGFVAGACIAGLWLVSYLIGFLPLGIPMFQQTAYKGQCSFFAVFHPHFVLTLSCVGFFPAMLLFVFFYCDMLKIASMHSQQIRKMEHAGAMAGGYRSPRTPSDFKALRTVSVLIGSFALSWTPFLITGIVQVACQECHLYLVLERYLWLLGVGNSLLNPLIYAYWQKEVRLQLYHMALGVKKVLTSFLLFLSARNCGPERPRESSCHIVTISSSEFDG", "test": "Agonist activity at human GPR119"}, "[2]": {"target": "T2, Dipeptidyl peptidase 4 (Homo sapiens, UniProt P27487)", "T2 sequence (P27487 whole entry)": "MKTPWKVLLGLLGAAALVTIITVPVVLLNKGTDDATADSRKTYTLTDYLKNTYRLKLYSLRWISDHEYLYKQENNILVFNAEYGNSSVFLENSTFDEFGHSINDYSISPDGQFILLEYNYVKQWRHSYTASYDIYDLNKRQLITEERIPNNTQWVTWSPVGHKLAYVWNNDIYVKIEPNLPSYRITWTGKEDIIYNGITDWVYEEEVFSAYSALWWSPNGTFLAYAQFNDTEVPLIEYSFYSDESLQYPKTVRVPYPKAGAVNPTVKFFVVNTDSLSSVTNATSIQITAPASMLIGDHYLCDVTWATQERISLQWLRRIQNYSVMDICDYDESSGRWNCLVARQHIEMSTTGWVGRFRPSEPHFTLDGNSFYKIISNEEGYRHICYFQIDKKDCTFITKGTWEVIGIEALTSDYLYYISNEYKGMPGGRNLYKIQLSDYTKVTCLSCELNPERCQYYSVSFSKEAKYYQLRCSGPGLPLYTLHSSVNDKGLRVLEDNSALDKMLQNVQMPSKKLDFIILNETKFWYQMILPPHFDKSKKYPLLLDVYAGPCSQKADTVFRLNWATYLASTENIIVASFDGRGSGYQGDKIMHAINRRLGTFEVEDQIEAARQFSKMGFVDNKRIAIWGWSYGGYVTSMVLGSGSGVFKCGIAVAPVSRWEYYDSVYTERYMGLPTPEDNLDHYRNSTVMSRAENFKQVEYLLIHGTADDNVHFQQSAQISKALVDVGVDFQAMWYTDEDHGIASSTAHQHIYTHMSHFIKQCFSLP", "test": "Inhibition of recombinant human DPP4 using Gly-Pro-AMC as substrate preincubated for 10 mins followed by substrate addition"}, "[3]": {"target": "T2, Dipeptidyl peptidase 4", "test": "Inhibition of recombinant human DPP4 using Gly-Pro-AMC as substrate preincubated for 10 mins followed by substrate addition by florescence assay"}, "[4]": {"target": "T3, Sodium/glucose cotransporter 1 (Homo sapiens, UniProt P13866)", "T3 sequence (P13866 whole entry)": "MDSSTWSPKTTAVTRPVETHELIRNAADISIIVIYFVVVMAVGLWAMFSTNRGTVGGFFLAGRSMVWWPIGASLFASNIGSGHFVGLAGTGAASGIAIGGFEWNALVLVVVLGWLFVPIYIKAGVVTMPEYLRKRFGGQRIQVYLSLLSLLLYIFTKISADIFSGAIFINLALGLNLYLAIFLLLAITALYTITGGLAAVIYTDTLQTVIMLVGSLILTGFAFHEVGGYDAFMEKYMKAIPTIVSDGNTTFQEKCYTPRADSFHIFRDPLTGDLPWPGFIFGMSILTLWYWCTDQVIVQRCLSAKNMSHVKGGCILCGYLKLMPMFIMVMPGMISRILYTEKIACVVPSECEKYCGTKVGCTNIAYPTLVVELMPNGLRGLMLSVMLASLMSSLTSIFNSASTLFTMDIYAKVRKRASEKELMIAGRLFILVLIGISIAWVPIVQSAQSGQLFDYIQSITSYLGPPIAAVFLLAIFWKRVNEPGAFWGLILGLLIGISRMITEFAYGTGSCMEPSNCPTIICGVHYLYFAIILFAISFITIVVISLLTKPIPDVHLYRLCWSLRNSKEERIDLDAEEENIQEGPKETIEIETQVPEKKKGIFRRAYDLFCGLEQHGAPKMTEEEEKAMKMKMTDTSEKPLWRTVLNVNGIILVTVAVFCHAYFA", "test": "Inhibition of human SGLT1"}, "[5]": {"target": "T4, Sodium/glucose cotransporter 2 (Homo sapiens, UniProt P31639)", "T4 sequence (P31639 whole entry)": "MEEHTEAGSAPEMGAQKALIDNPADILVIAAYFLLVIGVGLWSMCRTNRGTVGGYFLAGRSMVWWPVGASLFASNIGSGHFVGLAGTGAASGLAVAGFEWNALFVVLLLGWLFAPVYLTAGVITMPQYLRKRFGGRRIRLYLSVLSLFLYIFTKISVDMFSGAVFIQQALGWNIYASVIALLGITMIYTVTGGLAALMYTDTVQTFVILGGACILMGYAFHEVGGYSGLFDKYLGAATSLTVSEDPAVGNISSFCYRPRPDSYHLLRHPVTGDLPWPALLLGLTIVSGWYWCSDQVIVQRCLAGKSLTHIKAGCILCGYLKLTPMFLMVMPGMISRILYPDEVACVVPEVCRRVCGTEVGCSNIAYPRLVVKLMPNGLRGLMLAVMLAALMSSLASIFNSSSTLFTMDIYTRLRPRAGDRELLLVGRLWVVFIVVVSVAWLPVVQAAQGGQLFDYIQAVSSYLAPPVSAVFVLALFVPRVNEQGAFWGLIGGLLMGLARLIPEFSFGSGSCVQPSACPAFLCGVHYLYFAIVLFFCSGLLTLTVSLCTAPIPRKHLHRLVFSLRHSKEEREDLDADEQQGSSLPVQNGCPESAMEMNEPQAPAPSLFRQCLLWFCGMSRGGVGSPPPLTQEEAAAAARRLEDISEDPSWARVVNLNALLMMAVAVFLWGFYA", "test": "Inhibition of human SGLT2"}, "[6]": {"test": "Inhibition of Saccharomyces cerevisiae alpha-glucosidase using p-nitrophenyl glucopyranoside as substrate preincubated for 10 mins followed by substrate addition measured after 20 mins by spectrophotometric analysis"}, "[7]": {"test": "Toxicity in mouse", "format": "organism-based", "conditions": "in vivo"}}, "data": [{"smiles": "CC(C)(C)OC(=O)N1C2CCC1CC(Nc1nc(Nc3ccc(S(C)(=O)=O)cc3F)nc3c1CCCC3)C2", "note": "(configuration not stated)", "values": [{"measurement": "EC50", "setting": "[1]", "value": 270, "unit": "nM"}]}, {"smiles": "CC#CCn1c(N2CCC[C@@H](N)C2)cc(=O)n(Cc2cn(CC(=O)N(C)C)nn2)c1=O", "values": [{"measurement": "IC50", "setting": "[2]", "value": 28.6, "unit": "nM"}]}, {"smiles": "Cc1ccc(NS(=O)(=O)c2ccc3c(c2)CCCC3)cc1", "values": [{"measurement": "IC50", "setting": "[3]", "value": 2.8, "unit": "nM"}]}, {"smiles": "ONC[C@H]1C[C@@H](n2cc(Cc3ccc(C4CC4)cc3)c3c(Cl)cccc32)[C@H](O)[C@@H](O)[C@@H]1O", "values": [{"measurement": "EC50", "setting": "[4]", "value": 37, "unit": "nM"}, {"measurement": "EC50", "setting": "[5]", "value": 33, "unit": "nM"}]}, {"smiles": "COc1ccc2c(c1)C(SCC(=O)NCc1ccc(C)cc1)c1ccc(Cl)cc1C2", "note": "(configuration not stated)", "values": [{"measurement": "IC50", "setting": "[6]", "value": 80000, "unit": "nM"}]}, {"smiles": "N#C[C@@H]1CCCN1C(=O)CNC12CC3CC(CC(O)(C3)C1)C2", "note": "[VILDAGLIPTIN]", "values": [{"measurement": "MTD", "setting": "[7]", "value": 2000, "unit": "mg/kg"}]}]}
